Experimental data taken from publication PMC9741287, “Cytotoxic and Luminescent Properties of Novel Organotin Complexes with Chelating Antioxidant Ligand” (Molecules, 2022).
Several values for one entry are separate records, joined by “and”; a condition that tells them apart may be missing. Equal values may be shown once. Read-outs that look alike come from different tables or passages of the source.

What was measured:
[1] = DPPH-test (radical scavenging); conditions: for Quantity of Reduced DPPH after 20 h: DPPH 0.2 mM + test compound 0.2 mM in EtOH, equal volumes, 517 nm
Description: 2,2-Diphenyl-1-picrylhydrazyl (DPPH)—is a stable N-centered chromophore radical with absorption peak λmax = 517 nm, while its reduced form is pale yellow. Its reduction can be monitored spectrophotometrically and is a well-known and convenient way of evaluating radical scavenging activity. […] This may be caused by the participation not of only the sterically hindered phenolic group in the process of radical scavenging, but salicylic phenolic group and probably hydrazide fragment as well. The abovementioned structural moieties participate in the coordination of tin atoms, and therefore are excluded from the mechanism of antioxidant action of complexes. […] The introduction of tin is known to lower the radical scavenging capacity of corresponding ligands and is estimated as referred previously. The only exception is complex 7, bearing two 2,6-di-tert-butylphenols pendants attached directly to the tin.
The activity of synthesized compounds as radical scavengers was estimated spectrophotometrically at λmax = 517 nm using stable radical 2,2-diphenyl-1-picrylhydrazyl (Sigma-Aldrich) according to the known procedure. The reaction mixture contained DPPH (0.75 mL, 0.2 mM) and a solution of the test compound in EtOH (0.75 mL, 0.2 mM), and was put in 1 cm glass cuvettes. The measurements were carried out for 20 h and the results were calculated using Microsoft Excel 2010. Antioxidant activity was expressed as the percentage of reduced DPPH according to the Equation (1):I (%) = ((A0 − A1)/A0) × 100(1) where A0 is the absorbance of the control 0.1 mM DPPH in EtOH, ε DPPH = 1.15·× 10^4, and A1 is the absorbance of the reaction mixture in the presence of the test compound.

[2] = system: HCT116 (human colorectal carcinoma); test: MTT-test HCT116; assay type: cell-based
Experimental: (§1) Since the investigated compounds are designed as theranostic and cytostatic agents, their toxic impact was evaluated as a standard MTT-test. Cytotoxicity was studied on four cell lines, i.e.,—HCT116 (human colorectal carcinoma), MCF-7 (human breast cancer), A549 (human lung adenocarcinoma), and WI-38 (human fetal lung fibroblast). Obtained results appear to be unorthodox: as it is known, the introduction of an organotin moiety tends to noticeably increase compounds’ toxicity and more lipophilic ones do it better, but in the presented data pattern turns vice versa (Table 3).
(§2) HCT-116 (colon carcinoma), MCF-7 (breast adenocarcinoma), A-549 (lung adenocarcinoma) cell lines, and WI-38 (cell line composed of fibroblasts) were derived from The European Collection of Authenticated Cell Cultures (ECACC, Salisbury, UK), cultured in DMEM medium (Gibco™, Dublin, Ireland) supplemented with 10% fetal bovine serum (Gibco™, Brasilia, Brazil). The cells were cultured in an incubator at 37 °C in a humidified 5% CO2 atmosphere and subcultured two times a week.
(§3) The toxicity of compounds was studied on cultured cell lines according to standard MTT protocol.

[3] = target: T1, Soybean lipoxygenase LOX-1B (Glycine max, UniProt P08170); test: Lipoxygenase inhibition assay; assay type: biochemical; conditions: 3 µL of 1 mM compound in DMSO per 150 µL, 5 min, 20 °C, 234 nm
T1 sequence (P08170 1-839): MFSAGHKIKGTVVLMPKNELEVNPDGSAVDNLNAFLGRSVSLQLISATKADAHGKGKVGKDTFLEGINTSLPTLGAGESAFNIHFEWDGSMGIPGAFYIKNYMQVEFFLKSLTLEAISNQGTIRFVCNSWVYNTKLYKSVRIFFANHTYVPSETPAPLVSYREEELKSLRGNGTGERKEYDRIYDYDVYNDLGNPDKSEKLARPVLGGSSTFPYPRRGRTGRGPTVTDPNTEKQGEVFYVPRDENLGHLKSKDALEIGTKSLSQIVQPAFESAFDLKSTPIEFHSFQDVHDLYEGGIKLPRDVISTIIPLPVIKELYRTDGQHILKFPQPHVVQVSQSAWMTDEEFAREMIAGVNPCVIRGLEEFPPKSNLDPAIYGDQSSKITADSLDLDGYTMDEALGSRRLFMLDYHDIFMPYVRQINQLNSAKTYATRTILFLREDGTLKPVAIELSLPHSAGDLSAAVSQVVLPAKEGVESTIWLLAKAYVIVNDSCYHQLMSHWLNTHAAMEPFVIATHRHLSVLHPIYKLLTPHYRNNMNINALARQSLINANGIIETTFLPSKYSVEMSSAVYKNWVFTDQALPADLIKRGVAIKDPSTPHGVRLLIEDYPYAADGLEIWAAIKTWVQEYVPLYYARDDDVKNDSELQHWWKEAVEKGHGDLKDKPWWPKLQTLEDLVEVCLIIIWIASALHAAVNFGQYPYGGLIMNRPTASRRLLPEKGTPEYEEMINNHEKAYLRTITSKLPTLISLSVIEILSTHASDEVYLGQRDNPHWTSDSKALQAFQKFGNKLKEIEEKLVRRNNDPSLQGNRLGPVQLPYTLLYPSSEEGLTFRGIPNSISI
Description: Lipoxygenases are a group of enzymes catalyzing regioselective oxidation of polyunsaturated fatty acids to corresponding hydroperoxides. […] Soybean lipoxygenase LOX-1B was used as a model enzyme since it is structurally relative to human 5-lipoxygenases. The influence of synthesized compounds 1–7 on the LOX-1B activity was estimated as a formation rate of octadecadienoic acid hydroperoxides (λmax = 234 nm) from the initial acid and was monitored spectrophotometrically (Table 1).
The lipoxygenase activity was evaluated spectrophotometrically. The concentrations of linoleic acid oxidation products, isomeric hydroperoxides, were measured at λmax = 234 nm (ε = 25,000 L mol^−1 cm^−1) with a 96-well microplate spectrophotometer Multiskan Go (Thermo Fisher Scientific, Waltham, MA, USA). The analyzed solution contained 30 µL borate buffer (pH 9.0), 100 µL linoleic acid (0.45 mM) in borate buffer, and 3 µL 1 mM solution of the test compound in DMSO. The reaction was initiated by the addition of 17 µL of lipoxygenase (500 U) solution in borate buffer. The measurements were performed for 5 min at 20 °C.
The inhibition rate I (%) of lipoxygenase was determined by the Equations (2) and (3), where A0 is the absorbance of the control solution, and A1 is the absorbance of the reaction mixture in the presence of the tested compound 5 min after the beginning of the reaction. ΔA is the difference between A1 and A0. All experiments were performed in triplicate.

[4] = system: WI-38 (human fetal lung fibroblast); test: MTT-test WI-38; assay type: cell-based
Experimental: as §1, §2, §3

[5] = Luminescence / photophysical properties; assay type: physicochemical; conditions: for Quantum Yield, DMSO Solution 10 µM / Quantum Yield, DMSO Solution 100 µM / Quantum Yield, DMSO Solution 1000 µM / Quantum Yield, Powders: λex = 365 nm; for ε (λmax): at absorption λmax; for Luminosity (λmax): at λmax; for Quantum Yield, Powders: solid (compound 4 is an oil)
Experimental: Their quantum yields reached 20%, which together with their high absorption (Table 4) makes them highly emissive even in powders.
The registration of luminescence spectra of powders and solutions in the visible range as well as the measurement of quantum yields were carried out with Horiba FluoroMax Plus, with xenon lamp as excitation source at room temperature; excitation was performed through a ligand (λex = 365 nm). The quantum yield was measured by the absolute method in the integrating sphere.

Row | Compound | EC50 [1] [µM] | IC50 ([2]; Homo sapiens, HCT-116) [µM] | inhibition at 1000 µM (stock) ([3]; read-out: I (LOX Inhibition Assay)) [%] | IC50 ([4]; Homo sapiens, WI-38) [µM] | λmax (absorption) [5] [nm] | Quantum Yield, DMSO Solution 10 µM [5] [%] | Quantum Yield, DMSO Solution 100 µM [5] | Quantum Yield, DMSO Solution 1000 µM [5] | ε (λmax) [5] | Luminosity (λmax) [5] | Quantum Yield, Powders [5] | Luminosity (λ = 365 nm) [5] | ε (λ = 365 nm) [5] [M⁻¹ cm⁻¹] | Quantity of Reduced DPPH after 20 h [1] [%] | IC50 [2] [µM] | I (LOX Inhibition Assay) [3] [%] | IC50 [4] [µM]
1 | CC(C)(C)c1cc(C(=O)N/N=C/c2ccccc2O)cc(C(C)(C)C)c1O [Compound 1, Di-tert-butyl-4-hydroxy-N′-(2-hydroxybenzylidene)-benzohydrazine] | 163 | 1.7 ± 0.4 | 51.7 ± 4.2 | 6.6 ± 1.2 |  |  |  |  |  |  |  |  |  |  |  |  | 
2 | CC(C)(C)c1cc(C2=NN=Cc3ccccc3[O][Sn]([CH3])([CH3])[O]2)cc(C(C)(C)C)c1O [Compound 2, Me2SnL] |  |  |  |  | 403 | 17 ± 3 | 56 ± 1% | 39% and 39 ± 3% | 13,070 M^−1·cm^−1 | 771,130, (403) M^−1·cm^−1 | 14 ± 2% | 508,403 M^−1·cm^−1 | 8617 | 35.2 ± 1.9 | 2.4 ± 0.8 | 57.1 ± 4.7 | 9.5 ± 3.1
3 | C[CH2][Sn]1([CH2]C)[O]C(c2cc(C(C)(C)C)c(O)c(C(C)(C)C)c2)=NN=Cc2ccccc2[O]1 [Compound 3, Et2SnL] |  |  |  |  | 410 | 17 ± 2 | 45 ± 1% | 30 ± 2% | 14,020 M^−1·cm^−1 | 658,940, (410) M^−1·cm^−1 | 14 ± 2% | 210,983 M^−1·cm^−1 | 4489 | 41.3 ± 2.1 | 1.4 ± 0.5 | 61.1 ± 5.1 | 5.8 ± 1.5
4 | CCC[CH2][Sn]1([CH2]CCC)[O]C(c2cc(C(C)(C)C)c(O)c(C(C)(C)C)c2)=NN=Cc2ccccc2[O]1 [Compound 4, Bu2SnL] |  |  |  |  | 409 | 41 ± 3 | 67% and 66 ± 2% | 36 ± 3% | 5950 M⁻¹ cm⁻¹ | 398,650, (409) M^−1·cm^−1 | 4 ± 3% | 146,127 M^−1·cm^−1 | 2181 | 50.5 ± 2.8 | 10 ± 2.3 | 47.5 ± 3.8 | 10.8 ± 3.5
5 | CC(C)(C)c1cc(C2=NN=Cc3ccccc3[O][Sn]([C](C)(C)C)([C](C)(C)C)[O]2)cc(C(C)(C)C)c1O [Compound 5, Bu^t2SnL] |  |  |  |  | 412 | 20 ± 2 | 37 ± 1% | 29 ± 2% | 9920 M⁻¹ cm⁻¹ |  | 8 ± 1% | 206,360 M^−1·cm^−1 | 3080 | 26.5 ± 1.7 | 34.3 ± 14 | 61.4 ± 5.3 | 26.3 ± 11.3
6 | CC(C)(C)c1cc(C2=NN=Cc3ccccc3[O][Sn]([c]3ccccc3)([c]3ccccc3)[O]2)cc(C(C)(C)C)c1O [Compound 6, Ph2SnL] |  |  |  |  | 393 | 25 ± 2 | 67 ± 2% | 26 ± 2% | 13,450 M^−1·cm^−1 |  | 6 ± 2% | 333,370 M^−1·cm^−1 | 9010 | 47.4 ± 2.7 | 20 ± 11 | 44.9 ± 3.7 | 52.6 ± 14.6
7 | CC(C)(C)c1cc(C2=NN=Cc3ccccc3[O][Sn]([c]3cc(C(C)(C)C)c(O)c(C(C)(C)C)c3)([c]3cc(C(C)(C)C)c(O)c(C(C)(C)C)c3)[O]2)cc(C(C)(C)C)c1O [Compound 7, (2,6-Di-tert-butylphenol)2SnL] | 12.8 |  |  |  | 402 | 21 ± 2 | 42 ± 1% | 32 ± 2% | 13,270 M^−1·cm^−1 | 557,340, (402) M^−1·cm^−1 | 20% and 20 ± 2% | 294,084 M^−1·cm^−1 | 7002 |  | 20.5 ± 6.4 | 66.0 ± 5.9 | 10.6 ± 3.5
